Earlier results in patent US9782432B2, “Polymers and methods thereof for wound healing” (RUTGERS, THE STATE UNIVERSITY OF NEW JERSEY, priority 2012, dated 2017).
Read-outs that look alike come from different tables or passages of the source.

Key:
adhesions [1] = settings: 5 mg/kg/day intramuscularly, 7 days
adhesions [2] = settings: 0.35, 0.7 or 1.4 mg every 6 hours for 48 or 96 hours
adhesions [3] = test system: adhesions
adhesion formation [4] = settings: rats with intact pineal glands, injections of melatonin
adhesion formation [5] = settings: rats, IP injection
adhesion formation [6] = settings: dog, IP injection
adhesion formation [7] = test system: adhesion formation
adhesions [8] = settings: IP injections, rat model

## O=C(O)COC(=O)Cc1ccccc1Nc1c(Cl)cccc1Cl [aceclofenac]
Adhesions [1]
  decrease in fibroblasts at the injury site: 8%
  fibrous area, treatment vs control group: significant difference

## CC(=O)Oc1ccccc1C(=O)O [aspirin, acetylsalicylic acid]
Adhesions [2]
  adhesions vs untreated control: no group was significantly different from the untreated control
Adhesions [3]; 1.7 mg/kg/day for 5 days after surgery
  adhesion rate: 44%
Adhesions [3]; 28.0 mg/kg/day for 5 days after surgery
  adhesion rate: 77%

## COc1ccc2[nH]cc(CCNC(C)=O)c2c1 [melatonin]
Adhesion formation [4]
  adhesions vs control: significantly less adhesions than the control
Adhesion formation [5]
  adhesion formation: significantly reduce abdominal adhesion formation
Adhesion formation [6]
  adhesion formation: significantly reduce adhesion formation

## vitamin E
Adhesion formation [7]; IP injection
  reduction of adhesion formation: 80%
Adhesion formation [7]; oral or intramuscular administration
  reduction of adhesion formation: not when administered orally or intramuscularly
Adhesion formation [7]; rats, injected intraperitoneally
  abdominal adhesion formation: significantly reduce abdominal adhesion formation
Adhesions [8]
  efficacy compared with Seprafilm: as effective as Seprafilm
